This is an account of results in patent US20120245137A1 (Zalicus Pharmaceuticals Ltd., priority 2009, published 2012).

A value given as a limit tells only on which side of the number the result lay.

In general, IC50 refers to the midpoint of a concentration-inhibition curve.

N-type calcium channel subunits (α1B, α2δ, and β3a), sequence (Q00975 whole entry): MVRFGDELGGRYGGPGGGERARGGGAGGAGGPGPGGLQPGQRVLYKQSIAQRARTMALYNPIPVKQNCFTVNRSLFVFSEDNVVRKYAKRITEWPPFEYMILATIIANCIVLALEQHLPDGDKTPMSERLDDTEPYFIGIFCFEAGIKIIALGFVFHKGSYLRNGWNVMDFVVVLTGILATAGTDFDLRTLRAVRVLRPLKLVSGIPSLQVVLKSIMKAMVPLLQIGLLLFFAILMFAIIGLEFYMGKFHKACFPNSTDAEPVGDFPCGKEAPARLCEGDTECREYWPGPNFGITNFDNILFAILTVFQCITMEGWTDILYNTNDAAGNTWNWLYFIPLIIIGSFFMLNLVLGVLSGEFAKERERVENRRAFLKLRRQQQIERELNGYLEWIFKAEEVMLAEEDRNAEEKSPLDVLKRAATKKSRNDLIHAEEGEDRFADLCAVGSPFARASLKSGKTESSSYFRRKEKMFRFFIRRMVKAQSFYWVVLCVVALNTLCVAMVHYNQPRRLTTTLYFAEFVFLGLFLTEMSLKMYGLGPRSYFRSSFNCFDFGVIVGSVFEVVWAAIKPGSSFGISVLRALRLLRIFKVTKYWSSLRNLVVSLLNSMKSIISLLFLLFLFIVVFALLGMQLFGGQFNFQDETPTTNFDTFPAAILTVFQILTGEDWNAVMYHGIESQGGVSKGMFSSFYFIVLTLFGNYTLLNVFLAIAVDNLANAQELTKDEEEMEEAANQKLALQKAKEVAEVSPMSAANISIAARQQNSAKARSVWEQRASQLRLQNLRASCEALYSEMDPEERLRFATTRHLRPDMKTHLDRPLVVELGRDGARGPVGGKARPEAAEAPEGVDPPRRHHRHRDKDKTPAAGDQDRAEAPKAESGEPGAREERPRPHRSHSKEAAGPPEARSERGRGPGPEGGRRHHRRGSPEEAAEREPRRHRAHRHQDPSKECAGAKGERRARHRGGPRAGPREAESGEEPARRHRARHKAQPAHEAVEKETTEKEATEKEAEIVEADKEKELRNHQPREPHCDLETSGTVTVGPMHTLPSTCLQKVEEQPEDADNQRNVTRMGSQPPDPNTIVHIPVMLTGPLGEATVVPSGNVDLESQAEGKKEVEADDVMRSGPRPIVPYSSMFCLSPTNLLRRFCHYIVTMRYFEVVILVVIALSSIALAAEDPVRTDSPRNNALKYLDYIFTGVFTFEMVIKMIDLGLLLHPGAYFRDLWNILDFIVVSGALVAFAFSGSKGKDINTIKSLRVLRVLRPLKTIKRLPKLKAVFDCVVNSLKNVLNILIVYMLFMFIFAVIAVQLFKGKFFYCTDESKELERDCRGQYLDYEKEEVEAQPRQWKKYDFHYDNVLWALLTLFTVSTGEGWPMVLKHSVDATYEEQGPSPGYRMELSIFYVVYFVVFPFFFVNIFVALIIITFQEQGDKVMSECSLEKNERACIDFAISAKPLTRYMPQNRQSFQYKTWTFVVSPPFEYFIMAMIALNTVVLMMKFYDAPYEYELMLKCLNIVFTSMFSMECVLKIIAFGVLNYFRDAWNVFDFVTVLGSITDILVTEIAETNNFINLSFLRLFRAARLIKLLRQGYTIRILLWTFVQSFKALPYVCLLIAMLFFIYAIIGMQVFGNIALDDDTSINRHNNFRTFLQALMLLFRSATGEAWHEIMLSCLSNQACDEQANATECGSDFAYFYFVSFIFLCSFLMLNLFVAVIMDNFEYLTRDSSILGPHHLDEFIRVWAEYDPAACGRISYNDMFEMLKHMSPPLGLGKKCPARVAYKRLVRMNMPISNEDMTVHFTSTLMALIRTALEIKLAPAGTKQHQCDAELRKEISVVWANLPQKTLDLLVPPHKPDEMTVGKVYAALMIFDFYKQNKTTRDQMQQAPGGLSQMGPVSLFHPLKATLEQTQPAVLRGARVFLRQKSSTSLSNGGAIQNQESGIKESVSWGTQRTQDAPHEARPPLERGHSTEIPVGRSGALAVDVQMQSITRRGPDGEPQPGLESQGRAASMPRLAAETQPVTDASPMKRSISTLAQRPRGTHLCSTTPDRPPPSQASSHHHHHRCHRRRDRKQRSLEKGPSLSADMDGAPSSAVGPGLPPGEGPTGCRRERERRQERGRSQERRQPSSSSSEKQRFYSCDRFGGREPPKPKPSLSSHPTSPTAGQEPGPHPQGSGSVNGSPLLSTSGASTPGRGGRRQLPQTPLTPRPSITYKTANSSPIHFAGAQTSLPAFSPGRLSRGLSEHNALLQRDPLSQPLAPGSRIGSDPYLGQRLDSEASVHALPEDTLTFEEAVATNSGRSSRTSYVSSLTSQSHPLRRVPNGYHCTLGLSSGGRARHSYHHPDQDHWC
N-type calcium channel subunits (α1B, α2δ, and β3a), sequence (P54289 25-1103 partner): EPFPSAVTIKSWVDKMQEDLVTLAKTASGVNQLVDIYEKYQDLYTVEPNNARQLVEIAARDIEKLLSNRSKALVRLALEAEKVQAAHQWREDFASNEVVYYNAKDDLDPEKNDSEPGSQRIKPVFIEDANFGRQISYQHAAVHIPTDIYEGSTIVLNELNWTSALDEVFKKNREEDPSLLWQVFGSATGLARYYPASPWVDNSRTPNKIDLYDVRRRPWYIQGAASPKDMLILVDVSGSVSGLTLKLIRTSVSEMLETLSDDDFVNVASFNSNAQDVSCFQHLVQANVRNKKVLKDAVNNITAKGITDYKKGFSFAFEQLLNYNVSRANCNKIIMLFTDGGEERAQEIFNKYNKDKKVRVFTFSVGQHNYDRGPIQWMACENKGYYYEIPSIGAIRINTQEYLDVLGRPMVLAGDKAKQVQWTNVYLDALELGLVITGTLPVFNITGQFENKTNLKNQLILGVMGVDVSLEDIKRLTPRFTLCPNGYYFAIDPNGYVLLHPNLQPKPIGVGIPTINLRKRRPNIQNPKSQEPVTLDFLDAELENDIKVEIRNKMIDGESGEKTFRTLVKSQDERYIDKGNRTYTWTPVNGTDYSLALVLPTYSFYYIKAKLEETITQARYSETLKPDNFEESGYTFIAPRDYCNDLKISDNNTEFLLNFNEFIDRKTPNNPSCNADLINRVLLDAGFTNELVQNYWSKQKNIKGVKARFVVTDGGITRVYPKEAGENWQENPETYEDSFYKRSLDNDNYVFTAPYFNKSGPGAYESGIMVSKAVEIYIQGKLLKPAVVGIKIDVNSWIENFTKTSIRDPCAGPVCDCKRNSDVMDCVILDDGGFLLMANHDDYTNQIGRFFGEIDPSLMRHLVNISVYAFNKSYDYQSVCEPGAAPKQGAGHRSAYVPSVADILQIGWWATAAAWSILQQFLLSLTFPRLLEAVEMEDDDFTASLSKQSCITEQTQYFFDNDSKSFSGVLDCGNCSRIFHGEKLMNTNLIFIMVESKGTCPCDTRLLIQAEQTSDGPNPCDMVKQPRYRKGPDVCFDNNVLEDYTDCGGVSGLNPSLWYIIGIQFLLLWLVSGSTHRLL
N-type calcium channel subunits (α1B, α2δ, and β3a), sequence (P54284 whole entry partner): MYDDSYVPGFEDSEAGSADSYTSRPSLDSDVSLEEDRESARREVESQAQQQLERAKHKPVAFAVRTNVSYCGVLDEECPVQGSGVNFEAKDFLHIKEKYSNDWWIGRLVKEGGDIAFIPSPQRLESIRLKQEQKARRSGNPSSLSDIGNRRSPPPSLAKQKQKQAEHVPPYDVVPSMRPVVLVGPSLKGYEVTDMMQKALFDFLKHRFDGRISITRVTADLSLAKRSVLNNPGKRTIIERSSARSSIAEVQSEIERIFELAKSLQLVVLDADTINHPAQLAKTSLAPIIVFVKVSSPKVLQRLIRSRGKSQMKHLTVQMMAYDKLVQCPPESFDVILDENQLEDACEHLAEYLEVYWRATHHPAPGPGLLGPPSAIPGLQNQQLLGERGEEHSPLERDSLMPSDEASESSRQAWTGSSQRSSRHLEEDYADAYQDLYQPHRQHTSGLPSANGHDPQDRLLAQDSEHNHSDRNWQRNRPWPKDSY

The test concerns the target N-type calcium channel subunits (α1B, α2δ, and β3a) (Homo sapiens, UniProt Q00975). The experiment in a line: Block of Cav2.2 channel, whole cell voltage clamp, manual and PatchXpress. The settings on record: Table 5; table follows Assay Example 3 (whole cell voltage clamp / PatchXpress); assay not given. It is filed as cell-based. As to the method: Cells are grown either on poly-D-lysine coated coverglass (manual EP) or in TIS culture plates (PatchXpress). For the PatchExpress, cells are released from the flask using trypsin. In both cases, the […] solution is (in mM): 130 […], 10 EGTA, 10 HEPES, 2 MgCl2, 3 MgATP, pH 7.3 with CsOH.
Microelectrodes are fabricated from borosilicate glass and fire-polished. […] The reference electrode is a silver-silver chloride pellet. Voltages are not corrected for the liquid junction potential between the internal and external solutions and leak is subtracted using the P/n procedure. Solutions are applied to cells by bath perfusion via gravity. The experimental chamber volume is—0.2 mL. and the perfusion rate is 0.5-2 mL/min. Flow of suction through the chamber is maintained at all times. Measurement of current amplitudes is performed with […] software (HEKA Elektronik).
PatchXpress (Molecular Devices) is a 16-well whole-cell automated patch clamp device that operates asynchronously with fully integrated fluidics. […] Capacitance and series resistance compensation is automated. No correction for liquid junction potentials is employed. Leak is subtracted using the P/n procedure. Compounds are added to cells with a pipettor from a 96-well compound plate. Voltage protocols and the recording of membrane currents are performed using the PatchXpress software/hardware system. Current amplitudes are calculated with DataXpress software.
In both manual and automated patch clamp, cells are voltage clamped at […] or −90 m V and 50 ms pulses to +20 mV are applied every 15 sec (0.067 Hz). Compounds are added in escalating doses to measure % inhibition. Percent inhibition is calculated from the ratio of the curerent amplitude in the presence and absence of compound. When multiple doses are achieved per cell, IC50 values are calculated.
Turning to `O=C(NC[C@]1(O)CC[C@@H](S(=O)(=O)c2cccc(C(F)(F)F)c2)CC1)c1ccc(C(F)(F)F)nc1` [Compound 235, N-(((1S,4S)-1-hydroxy-4-(3-(trifluoromethyl)phenylsulfonyl)cyclohexyl)methyl)-6-(trifluoromethyl)nicotinamide], the IC50 worked out at 5940 nM.

`COc1cc(C(=O)NC[C@]2(O)CC[C@@H](S(=O)(=O)c3cccc(C(F)(F)F)c3)CC2)cc(Cl)n1` [Compound 236, 2-chloro-N-(((1S,4S)-1-hydroxy-4-(3-(trifluoromethyl)phenylsulfonyl)cyclohexyl)methyl)-6-methoxyisonicotinamide]: the IC50 came to 2100 nM.

With `O=C(NC[C@]1(O)CC[C@@H](S(=O)(=O)c2cccc(C(F)(F)F)c2)CC1)c1cc(C(F)(F)F)ccn1` [Compound 237, N-(((1S,4S)-1-hydroxy-4-(3-(trifluoromethyl)phenylsulfonyl)cyclohexyl)methyl)-4-(trifluoromethyl)picolinamide], the IC50 came to 4560 nM.

Regarding `O=C(N[C@H]1CC[C@@](F)(S(=O)(=O)c2cccc(C(F)(F)F)c2)CC1)c1ccc(O)c(C(F)(F)F)c1` [Compound 247, N-((1S,4S)-4-fluoro-4-(3-(trifluoromethyl)phenylsulfonyl)cyclohexyl)-4-hydroxy-3-(trifluoromethyl)benzamide], the IC50 came to 1010 nM.

For the molecule `O=C1c2ccc(C(F)(F)F)cc2C(=O)N1C1CCC(F)(S(=O)(=O)c2cccc(C(F)(F)F)c2)CC1` [Compound 280, 2-((1S,4S)-4-fluoro-4-(3-(trifluoromethyl)phenylsulfonyl)cyclohexyl)-5-(trifluoromethyl)isoindoline-1,3-dione], the half-maximal inhibitory concentration (IC50) was > 10000 nM.

With `O=C(N[C@H]1CC[C@@](F)(S(=O)(=O)c2cccc(C(F)(F)F)c2)CC1)C1CCCCN1` (stereo partly drawn) [Compound 283, N-((1S,4S)-4-fluoro-4-(3-(trifluorornethyl)phenylsulfonyl)cyclohexyl) piperidine-2-carboxamide], the IC50 amounted to 580 nM.

Consider `N[C@@H]1CCCC[C@H]1C(=O)N[C@H]1CC[C@@](F)(S(=O)(=O)c2cccc(C(F)(F)F)c2)CC1` [Compound 284, (1R,2R)-2-amino-N-((1S,4S)-4-fluoro-4-(3-(trifluoromethyl)phenylsulfonyl)cyclohexyl) cyclohexanecarboxamide], for which the IC50 is 1050 nM.

Regarding `CC1(NC(=O)c2ccnn2CC(F)(F)F)CCC(S(=O)(=O)c2cccc(C(F)(F)F)c2)CC1` (stereo not drawn) [Compound 314, N-(1-methyl-4-(3-(trifluoromethyl)phenylsulfonyl)cyclohexyl)-1-(2,2,2-trifluoroethyl)-1Hpyrazole-5-carboxamide], the IC50 worked out at 4920 nM.

With `COc1cc(F)cc(C(=O)NC[C@H]2C[C@H](S(=O)(=O)c3cccc(C(F)(F)F)c3)C2)c1` [Compound 375, 3-fluoro-5-methoxy-N-(((1R,3R)-3-(3-(trifluoromethyl)phenylsulfonyl)cyclobutyl)methyl)benzamide], the IC50 turned out to be 260 nM.

Turning to `O=C(NC[C@H]1C[C@H](S(=O)(=O)c2cccc(C(F)(F)F)c2)C1)c1ccc(OCC(F)(F)F)nc1` [Compound 376, 6-(2,2,2-trifluoroethoxy)-N-(((1R,3R)-3-(3-(trifluoromethyl)phenylsulfonyl)cyclobutyl)methyl)nicotinamide], the IC50 worked out at 540 nM.

For the molecule `O=C(NC[C@H]1C[C@H](S(=O)(=O)c2cc(F)cc(C(F)(F)F)c2)C1)c1ccc(C(F)(F)F)cn1` [Compound 390, N-(((1R,3R)-3-(3-fluoro-5-(trifluoromethyl)phenylsulfonyl)cyclobutyl)methyl)-5-(trifluoromethyl) picolinamide], the IC50 worked out at 1630 nM.

With `O=C(NC[C@H]1C[C@H](S(=O)(=O)c2cc(F)cc(C(F)(F)F)c2)C1)c1ccc(F)c(Cl)c1` [Compound 391, 3-chloro-4-fluoro-N-(((1R,3R)-3-(3-fluoro-5-(trifluoromethyl)phenylsulfonyl)cyclobutyl)rnethyl)benzamide], the half-maximal inhibitory concentration (IC50) is 730 nM.

In the case of `O=C(NC[C@H]1C[C@H](S(=O)(=O)c2cc(F)cc(C(F)(F)F)c2)C1)c1cn2cc(C(F)(F)F)ccc2n1` [Compound 393, N-(((1R,3R)-3-(3-fluoro-5-(trifluoromethyl)phenylsulfonyl)cyclobutyl)methyl)-6-(trifluoromethyl) imidazo[1,2-a]pyridine-2-carboxamide], the IC50 stood at 1070 nM.

Take `O=C(NC[C@H]1C[C@H](S(=O)(=O)c2cc(F)cc(C(F)(F)F)c2)C1)c1ccc(Cl)c(OC(F)(F)F)c1` [Compound 394, 4-chloro-N-(((1R,3R)-3-(3-fluoro-5-(trifluoromethyl)phenylsulfonyl)cyclobutyl)methyl)-3-(trifluoromethoxy)benzamide]: the IC50 was 510 nM.

In the case of `O=C(NC[C@H]1C[C@H](S(=O)(=O)c2cc(F)cc(C(F)(F)F)c2)C1)c1ccc(Cl)c(Cl)c1` [Compound 395, 3,4-dichloro-N-(((1R,3R)-3-(3-fluoro-5-(trifluoromethyl)phenylsulfonyl)cyclobutyl)methyl)benzamide], the concentration for half-maximal inhibition (IC50) came out at 750 nM.

On to `O=C(NC[C@H]1C[C@H](S(=O)(=O)c2cc(F)cc(C(F)(F)F)c2)C1)c1cc(C(F)(F)F)ccn1` [Compound 397, N-(((1R,3R)-3-(3-fluoro-5-(trifluoromethyl)phenylsulfonyl)cyclobutyl)methyl)-4-(trifluoromethyl)picolinamide], for which the IC50 was determined as 910 nM.

Turning to `O=C(NC[C@H]1C[C@H](S(=O)(=O)c2cc(F)cc(C(F)(F)F)c2)C1)c1ccc(OC(F)(F)F)cc1` [Compound 398, N-(((1R,3R)-3-(3-fluoro-5-(trifluoromethyl)phenylsulfonyl)cyclobutyl)methyl)-4-(trifluoromethoxy)benzamide], the IC50 stood at 740 nM.

For the molecule `O=C(Nc1ccc(Oc2ccc(F)cc2)cc1)[C@H]1C[C@H](S(=O)(=O)c2cccc(C(F)(F)F)c2)C1` [Compound 406, (1R,3R)-N-(4-(4-fluorophenoxy)phenyl)-3-(3-(trifluoromethyl)phenylsulfonyl)cyclobutane carboxamide], the IC50 amounted to 1540 nM.

Turning to `O=C(Nc1ncccc1C(F)(F)F)[C@H]1C[C@@H](S(=O)(=O)c2cccc(C(F)(F)F)c2)C1` [Compound 414, (1S,3S)-3-(3-(trifluoromethyl)phenylsulfonyl)-N-(3-(trifluoromethyl)pyridin-2-yl)cyclobutanecarboxamide], the IC50 was 1360 nM.

Consider `Cc1nn(C)c(C)c1S(=O)(=O)NC[C@H]1C[C@H](S(=O)(=O)c2cccc(C(F)(F)F)c2)C1` [Compound 421, 1,3,5-trimethyl-N-(((1R,3R)-3-(3-(trifluoromethyl)phenylsulfonyl)cyclobutyl)methyl)-1H-pyrazole-4-sulfonamide], for which the IC50 is 5580 nM.

As to `O=C(N[C@H]1C[C@@H](S(=O)(=O)c2cccc(C(F)(F)F)c2)C1)c1ccc(C(F)(F)F)nc1` [Compound 430, 6-(trifluoromethyl)-N-((1S,3S)-3-(3-(triffuoromethyl)phenylsulfonyl)cyclobutyl) nicotinamide], the IC50 was > 10000 nM.

On to `CC([C@H]1C[C@H](NC(=O)c2ncc(C(F)(F)F)cc2S(C)(=O)=O)C1)S(=O)(=O)c1cccc(C(F)(F)F)c1` (stereo partly drawn) [Compound 435, 3-(methylsulfonyl)-5-(trifluoromethyl)-N-((1R,3R)-3-((R)-1-(3-(trifluoromethyl)phenylsulfonyl)ethyl)cyclobutyl) picolinamide], for which the half-inhibitory concentration (IC50) came out at 1470 nM.

As to `CC(C)([C@H]1C[C@H](NC(=O)c2ncc(C(F)(F)F)cc2S(C)(=O)=O)C1)S(=O)(=O)c1cccc(C(F)(F)F)c1` [Compound 436, 3-(methylsulfonyl)-5-(trifluoromethyl)-N-((1R,3R)-3-(2-(3-(trifluoromethyl)phenylsulfonyl)propan-2-yl)cyclobutyl)picolinamide], the half-maximal inhibitory concentration (IC50) worked out at 630 nM.

Regarding `CC(C)([C@H]1C[C@H](NC(=O)c2cnc(C(F)(F)F)nc2)C1)S(=O)(=O)c1cccc(C(F)(F)F)c1` [Compound 437, 2-(trifluoromethyl)-N-((1R,3R)-3-(2-(3-(trifluoromethyl)phenylsulfonyl)propan-2-yl)cyclobutyl)pyrimidine-5-carboxamide], the IC50 came to 720 nM.

As for `CC(C)([C@H]1C[C@H](NC(=O)c2ccc(C(F)(F)F)cc2S(C)(=O)=O)C1)S(=O)(=O)c1cccc(C(F)(F)F)c1` [Compound 439, 2-(methylsulfonyl)-4-(trifluoromethyl)-N-((1R,3R)-3-(2-(3-(tritluoromethyl)phenylsulfonyl)propan-2-yl)cyclobutyl)benzamide], the IC50 stood at 400 nM.

As for `CC(C)([C@H]1C[C@H](NC(=O)c2ccc(F)c(C(F)(F)F)c2)C1)S(=O)(=O)c1cccc(C(F)(F)F)c1` [Compound 440, 4-fluoro-3-(trifluoromethyl)-N-((1R,3R)-3-(2-(3-(trifluoromethyl)phenylsulfonyl)propan-2-yl)cyclobutyl)benzamide], the IC50 was found to be 80 nM.

As to `CC(C)([C@H]1C[C@H](NC(=O)c2ccc(F)c(Cl)c2)C1)S(=O)(=O)c1cccc(C(F)(F)F)c1` [Compound 441, 3-chloro-4-fluoro-N-((1R,3R)-3-(2-(3-(trifluoromethyl)phenylsulfonyl)propan-2-yl)cyclobutyl)benzamide], the IC50 was 80 nM.
